Biological target: hFXR (Homo sapiens (Human), UniProt Q96RI1)
Experiment: In Vitro FXR Assay (TK)
Type: cell-based
Conditions: CV-1 cells transfected with hFXR, hRXR, TK-ECRE-luc and pCMX-YFP; incubated 18 hrs; luminescence; maximum efficacy <25% of the Fexarmine control classified as '+'
Procedure: Example B-1: In Vitro FXR Assay (TK)
CV-1 cells were seeded at a density of 2,000,000 cells in a T175 flask with DMEM+10% charcoal double-stripped FBS and incubated at 37° C. in 5% CO2 for 18 h (O/N).
After 18 h of incubation, the medium in the T175 flask was changed with fresh DMEM+10% charcoal super-stripped serum. In a polypropylene tube, 2500 μL OptiMEM (Life Technologies, Cat #31985-062) was combined with expression plasmids for hFXR, hRXR, TK-ECRE-luc and pCMX-YFP. The tube was then briefly vortexed and incubated at room temperature for 5 minutes. Transfection reagent (X-tremeGENE HP from Roche, Cat #06 366 236 001) was added to the OptiMEM/plasmid mixture vortexed and incubated at room temperature for 20 minutes. Following incubation, the transfection reagent/DNA mixture complex was added to cells in the T175 flask and the cells were incubated at 37° C. in 5% CO2 for 18 h (O/N).
Compounds were serially diluted in DMSO and added to transfected CV-1 cells. The cells were then incubated for 18 hrs. The next day cells were lysed and examined for luminescence.

Chain of hFXR (Q96RI1 whole entry): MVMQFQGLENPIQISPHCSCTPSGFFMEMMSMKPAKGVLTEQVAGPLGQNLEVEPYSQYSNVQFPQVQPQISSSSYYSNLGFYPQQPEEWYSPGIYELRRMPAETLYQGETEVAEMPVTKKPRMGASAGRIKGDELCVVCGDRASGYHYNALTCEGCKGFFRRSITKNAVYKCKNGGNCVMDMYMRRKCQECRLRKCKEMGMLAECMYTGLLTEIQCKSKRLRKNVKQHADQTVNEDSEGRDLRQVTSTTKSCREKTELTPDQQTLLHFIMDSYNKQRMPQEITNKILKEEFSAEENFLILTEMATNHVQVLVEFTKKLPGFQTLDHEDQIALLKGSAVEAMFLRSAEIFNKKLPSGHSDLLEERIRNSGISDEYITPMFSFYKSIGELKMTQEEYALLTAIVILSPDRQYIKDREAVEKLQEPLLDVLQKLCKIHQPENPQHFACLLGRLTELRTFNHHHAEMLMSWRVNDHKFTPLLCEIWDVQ
Chain of hFXR (P19793 whole entry partner): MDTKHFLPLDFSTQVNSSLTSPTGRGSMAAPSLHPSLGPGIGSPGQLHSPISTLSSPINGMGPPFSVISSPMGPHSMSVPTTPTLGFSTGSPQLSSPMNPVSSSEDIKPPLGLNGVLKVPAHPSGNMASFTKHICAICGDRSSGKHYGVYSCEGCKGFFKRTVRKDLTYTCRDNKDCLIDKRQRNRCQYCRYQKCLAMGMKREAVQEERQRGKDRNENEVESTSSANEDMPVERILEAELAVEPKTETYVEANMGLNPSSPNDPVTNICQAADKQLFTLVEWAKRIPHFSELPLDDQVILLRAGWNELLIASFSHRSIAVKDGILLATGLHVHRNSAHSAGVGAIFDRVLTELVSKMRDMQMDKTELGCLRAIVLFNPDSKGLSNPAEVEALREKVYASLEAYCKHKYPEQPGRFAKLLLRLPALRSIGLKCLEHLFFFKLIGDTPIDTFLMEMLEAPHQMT

For `COc1ccc([C@H]2CC[C@H](CN(c3cccc(-c4cnn(C(C)C)c4)c3)C(=O)[C@H]3CC[C@H](O)CC3)CC2)nc1C` [Compound 5.07, trans-4-Hydroxy-N-(3-(1-isopropyl-1H-pyrazol-4-yl)phenyl)-N-((trans-4-(5-methoxy-6-methylpyridin-2-yl)cyclohexyl)methyl)cyclohexanecarboxamide], the EC50 was ≤ 250 nM.

`COc1ccc([C@H]2CC[C@H](CN(c3cccc(C#Cc4ccn(C)n4)c3)C(=O)[C@H]3CC[C@H](O)CC3)CC2)cc1C` [Compound 4.02, trans-4-Hydroxy-N-((trans-4-(4-methoxy-3-methylphenyl)cyclohexyl)methyl)-N-(3-((1-methyl-1H-pyrazol-3-yl)ethynyl)phenyl)cyclohexanecarboxamide] was tested, and the EC50 was ≤ 250 nM.

`COc1ccc([C@H]2CC[C@H](CN(c3cc(-c4cnn(C(C)C)c4)ccn3)C(=O)[C@H]3CC[C@H](O)CC3)CC2)nc1C#N` [Compound 5.20, trans-N-((trans-4-(6-Cyano-5-methoxypyridin-2-yl)cyclohexyl)methyl)-4-hydroxy-N-(4-(1-isopropyl-1H-pyrazol-4-yl)pyridin-2-yl)cyclohexanecarboxamide] gave an EC50 of 250 to 1000 nM.

In the case of `CN(C)c1ccc([C@H]2CC[C@H](CN(c3cccc(-c4cnn(C5CC5)c4)c3)C(=O)[C@H]3CC[C@H](O)CC3)CC2)cn1` [Compound 5.02, trans-N-(3-(1-Cyclopropyl-1H-pyrazol-4-yl)phenyl)-N-((trans-4-(6-(dimethylamino)pyridin-3-yl)cyclohexyl)methyl)-4-hydroxycyclohexanecarboxamide], the EC50 is reported as ≤ 250 nM.

In the case of `COc1ccc([C@H]2CC[C@H](CN(c3cc(-c4cnn(C5CC5)c4)ccn3)C(=O)[C@H]3CC[C@H](O)CC3)CC2)nc1C` [Compound 5.09, trans-N-(4-(1-Cyclopropyl-1H-pyrazol-4-yl)pyridin-2-yl)-4-hydroxy-N-((trans-4-(5-methoxy-6-methylpyridin-2-yl)cyclohexyl)methyl)cyclohexanecarboxamide], the EC50 is reported as 250 to 1000 nM.

In the case of `COc1ncc([C@H]2CC[C@H](CN(c3cccc(-c4cnn(C5CC5)c4)c3)C(=O)[C@H]3CC[C@H](O)CC3)CC2)cc1C` [Compound 5.12, trans-N-(3-(1-Cyclopropyl-1H-pyrazol-4-yl)phenyl)-4-hydroxy-N-((trans-4-(6-methoxy-5-methylpyridin-3-yl)cyclohexyl)methyl)cyclohexanecarboxamide], the EC50 is reported as ≤ 250 nM.

In the case of `COc1ccc([C@H]2CC[C@H](CN(c3cc(-c4cnn(C(C)C)c4)ccn3)C(=O)[C@H]3CC[C@H](O)CC3)CC2)cc1C` [Compound 5.11, trans-4-Hydroxy-N-(4-(1-isopropyl-1H-pyrazol-4-yl)pyridin-2-yl)-N-((trans-4-(4-methoxy-3-methylphenyl)cyclohexyl)methyl)cyclohexanecarboxamide], the EC50 is reported as ≤ 250 nM.

For `COc1ccc([C@H]2CC[C@H](CN(c3cccc(-c4cnn(CCN(C)C)c4)c3)C(=O)[C@H]3CC[C@H](O)CC3)CC2)cc1C` [Compound 3.06, trans-N-(3-(1-(2-(Dimethylamino)ethyl)-1H-pyrazol-4-yl)phenyl)-4-hydroxy-N-((trans-4-(4-methoxy-3-methylphenyl)cyclohexyl)methyl)cyclohexanecarboxamide], the EC50 was ≥ 1000 nM.

With `COc1ccc([C@H]2CC[C@H](CN(c3cccc(-c4cnn(C(F)(F)F)c4)c3)C(=O)[C@H]3CC[C@H](O)CC3)CC2)cc1C` [Compound 2.06, trans-4-Hydroxy-N-((trans-4-(4-methoxy-3-methylphenyl)cyclohexyl)methyl)-N-(3-(1-(trifluoromethyl)-1H-pyrazol-4-yl)phenyl)cyclohexanecarboxamide] the EC50 was ≤ 250 nM.

With `CCCn1cc(-c2cccc(N(C[C@H]3CC[C@H](c4ccc(OC)c(C)c4)CC3)C(=O)[C@H]3CC[C@H](O)CC3)c2)cn1` [Compound 3.04, trans-4-Hydroxy-N-((trans-4-(4-methoxy-3-methylphenyl)cyclohexyl)methyl)-N-(3-(1-propyl-1H-pyrazol-4-yl)phenyl)cyclohexanecarboxamide] the EC50 was ≤ 250 nM.

`COc1ccc(C23CCC(CN(c4cc(-c5cnn(C6CC6)c5)ccn4)C(=O)[C@H]4CC[C@H](O)CC4)(CC2)CC3)cc1C` [Compound 2.08, trans-N-(4-(1-Cyclopropyl-1H-pyrazol-4-yl)pyridin-2-yl)-4-hydroxy-N-((4-(4-methoxy-3-methylphenyl)bicyclo[2.2.2]octan-1-yl)methyl)cyclohexanecarboxamide] was tested, and the EC50 was ≤ 250 nM.

`COc1ccc([C@H]2CC[C@H](CN(c3cccc(-c4cnn(C5CC5)c4)c3)C(=O)[C@H]3CC[C@H](O)CC3)CC2)nc1C` [Compound 5.04, trans-N-(3-(1-cyclopropyl-1H-pyrazol-4-yl)phenyl)-4-hydroxy-N-((trans-4-(5-methoxy-6-methylpyridin-2-yl)cyclohexyl)methyl)cyclohexanecarboxamide] was tested, and the EC50 was ≤ 250 nM.

Compound `COc1cnc([C@H]2CC[C@H](CN(c3cccc(-c4cnn(C5CC5)c4)c3)C(=O)[C@H]3CC[C@H](O)CC3)CC2)cc1C` [Compound 5.18, trans-N-(3-(1-Cyclopropyl-1H-pyrazol-4-yl)phenyl)-4-hydroxy-N-((trans-4-(5-methoxy-4-methylpyridin-2-yl)cyclohexyl)methyl)cyclohexanecarboxamide] has an EC50 of 250 to 1000 nM.

With `COc1ccc([C@H]2CC[C@H](CN(c3cccc(-c4cnn(C(C)C)c4)c3)C(=O)[C@H]3CC[C@H](O)CC3)CC2)nc1C#N` [Compound 5.23, trans-N-((trans-4-(6-Cyano-5-methoxypyridin-2-yl)cyclohexyl)methyl)-4-hydroxy-N-(3-(1-isopropyl-1H-pyrazol-4-yl)phenyl)cyclohexanecarboxamide] the EC50 was ≤ 250 nM.

With `COc1ccc(C23CCC(CN(c4cccc(-c5cnn(C(C)C)c5)c4)C(=O)[C@H]4CC[C@H](O)CC4)(CC2)CC3)cc1C` [Compound 6.02, trans-4-Hydroxy-N-(3-(1-isopropyl-1H-pyrazol-4-yl)phenyl)-N-((4-(4-methoxy-3-methylphenyl)bicyclo[2.2.2]octan-1-yl)methyl)cyclohexanecarboxamide] the EC50 was ≤ 250 nM.

In the case of `COc1ccc([C@H]2CC[C@H](CN(c3cccc(-c4cnn(CCF)c4)c3)C(=O)[C@H]3CC[C@H](O)CC3)CC2)cc1C` [Compound 3.12, trans-N-(3-(1-(2-Fluoroethyl)-1H-pyrazol-4-yl)phenyl)-4-hydroxy-N-((trans-4-(4-methoxy-3-methylphenyl)cyclohexyl)methyl)cyclohexanecarboxamide], the EC50 is reported as ≤ 250 nM.

For `COc1ccc([C@H]2CC[C@H](CN(c3cc(-c4cnn(C5CC5)c4)cc(C)n3)C(=O)[C@H]3CC[C@H](O)CC3)CC2)cc1C` [Compound 5.26, trans-N-(4-(1-cyclopropyl-1H-pyrazol-4-yl)-6-methylpyridin-2-yl)-4-hydroxy-N-((trans-4-(4-methoxy-3-methylphenyl)cyclohexyl)methyl)cyclohexanecarboxamide], the EC50 was 250 to 1000 nM.

In the case of `COc1ccc([C@H]2CC[C@H](CN(c3cccc(C#Cc4cn[nH]c4)c3)C(=O)[C@H]3CC[C@H](O)CC3)CC2)cc1C` [Compound 4.01, trans-N-(3-((1H-Pyrazol-4-yl)ethynyl)phenyl)-4-hydroxy-N-((trans-4-(4-methoxy-3-methylphenyl)cyclohexyl)methyl)cyclohexanecarboxamide], the EC50 is reported as ≤ 250 nM.
